This is an account of results in PubChem BioAssay AID330 (DTP/NCI, 2004).

“And” between values parts separate entries of the source, which are not always exact repeats. Equal values may be shown once. Toxic doses and inconclusive results are not listed.

In the test the test system is P388 leukemia ip, CD2F1 mice, survival T/C. Put plainly: NCI In Vivo Anticancer Drug Screen. Data for tumor model P388 Leukemia (intraperitoneal) in CD2F1 (CDF1) mice. The conditions noted are these: endpoint: median survival time, higher = longer survival. A digest of the protocol: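 Mice carrying the transplanted tumor received test compound or vehicle. Survival was recorded in each group, and the value is the treated-group measurement divided by that of the vehicle-treated control group.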

Where [1] appears, read: dose: 100.0 mg/kg/injection, schedule: Q01DX009 (ip), vehicle: saline.
[2] abbreviates: dose: 400.0 mg/kg/injection, schedule: Q01DX009 (ip), vehicle: saline.
[3] abbreviates: dose: 50.0 mg/kg/injection, schedule: Q01DX005 (ip), vehicle: Klucel (hydroxypropylcellulose) (HPC).
Where [4] appears, read: dose: 100.0 mg/kg/injection, schedule: Q01DX005 (ip), vehicle: Klucel (hydroxypropylcellulose) (HPC).
Setting [5] is: dose: 200.0 mg/kg/injection, schedule: Q01DX005 (ip), vehicle: Klucel (hydroxypropylcellulose) (HPC).
The mark [6] stands for this setting: dose: 60.0 mg/kg/injection, schedule: Q01DX005 (ip), vehicle: saline with Tween-80.
Setting [7] is: dose: 120.0 mg/kg/injection, schedule: Q01DX005 (ip), vehicle: saline with Tween-80.
The mark [8] stands for this setting: dose: 240.0 mg/kg/injection, schedule: Q01DX005 (ip), vehicle: saline with Tween-80.
Where [9] appears, read: dose: 50.0 mg/kg/injection, schedule: Q01DX009 (ip), vehicle: saline.
Where [10] appears, read: dose: 200.0 mg/kg/injection, schedule: Q01DX009 (ip), vehicle: saline.
The mark [11] stands for this setting: dose: 50.0 mg/kg/injection, schedule: Q01DX009 (ip), vehicle: Klucel (hydroxypropylcellulose) (HPC).
[12] abbreviates: dose: 50.0 mg/kg/injection, schedule: Q01DX005 (ip), vehicle: saline with Tween-80.
[13] abbreviates: dose: 100.0 mg/kg/injection, schedule: Q01DX005 (ip), vehicle: saline with Tween-80.
[14] abbreviates: dose: 200.0 mg/kg/injection, schedule: Q01DX005 (ip), vehicle: saline with Tween-80.

Take `Cc1oc2c(C)c3oc(=O)cc(C)c3cc2c1CN`: the T/C is 111 % of control (dose: 12.5 mg/kg/injection, schedule: Q01DX001 (ip), vehicle: Klucel (hydroxypropylcellulose) (HPC)) and 96 % of control (dose: 25.0 mg/kg/injection, schedule: Q01DX001 (ip), vehicle: Klucel (hydroxypropylcellulose) (HPC)).
For the compound `COCCOC(C)C(=O)C(O)S(=O)(=O)O` (stereo unspecified), the T/C by setting is: under setting [1], 109 % of control; (dose: 100.0 mg/kg/injection, schedule: Q04DX003 (ip), vehicle: saline) 100 % of control; (dose: 200.0 mg/kg/injection, schedule: Q04DX003 (ip), vehicle: saline) 100 % of control; under setting [2], 154 % of control; (dose: 400.0 mg/kg/injection, schedule: Q04DX003 (ip), vehicle: saline) 107 % of control.
As to `COc1ccc(-c2n(O)c(C)c(C)[n+]2[O-])cc1`, the T/C by setting is: (dose: 12.5 mg/kg/injection, schedule: Q01DX009 (ip), vehicle: saline with Tween-80) 101 % of control; (dose: 25.0 mg/kg/injection, schedule: Q01DX009 (ip), vehicle: saline with Tween-80) 100 % of control; (dose: 50.0 mg/kg/injection, schedule: Q01DX009 (ip), vehicle: saline with Tween-80) 102 % of control and 92 % of control.
For the compound `c1cnc2c3cnc4sccc4c3nn2c1`, the T/C runs as follows: (dose: 100.0 mg/kg/injection, schedule: Q04DX002 (ip), vehicle: saline with Tween-80) 93 % of control; (dose: 200.0 mg/kg/injection, schedule: Q04DX002 (ip), vehicle: saline with Tween-80) 88 % of control; (dose: 400.0 mg/kg/injection, schedule: Q04DX002 (ip), vehicle: saline with Tween-80) 93 % of control.
In the case of `O=C(N/N=C/c1ccccc1[O-])c1ccccc1O.O=C(N/N=C/c1ccccc1[O-])c1ccccc1O.[Mn+2]`, the T/C by setting is: under setting [3], 100 % of control; under setting [4], 103 % of control; under setting [5], 103 % of control.
With `CC(C)(C)C(=O)C1C(=O)c2ccccc2C1=O`, the T/C is, setting by setting: (dose: 1.56 mg/kg/injection, schedule: Q04DX003 (ip), vehicle: Klucel (hydroxypropylcellulose) (HPC)) 98 % of control; (dose: 3.12 mg/kg/injection, schedule: Q04DX003 (ip), vehicle: Klucel (hydroxypropylcellulose) (HPC)) 89 % of control.
As for `CC(CN(C)C)C(/C=C/c1ccc(Cl)c(Cl)c1)=N\Nc1ccccc1` (stereo unspecified), the T/C is 87 % of control under setting [6], 93 % of control under setting [7] and 87 % of control under setting [8].
For `CC(C)(Cl)C1ON1C(C)(C)C` (stereo unspecified), the T/C reads like this: under setting [6], 107 % of control; under setting [7], 107 % of control; under setting [8], 108 % of control.
Take `C=C1CCOC2(C(O)C(C)(O)CO)NC(=O)C1(O)NC2=O` (stereo unspecified): the T/C is 108 % of control under setting [9], 118 % of control under setting [1], 103 % of control under setting [10] and 108 % of control under setting [2].
On to `CC1(C)N=C(N)N=C(N)N1c1ccc(C(N)=O)cc1`, for which the T/C was 100 % of control and 101 % of control (dose: 25.0 mg/kg/injection, schedule: Q01DX005 (ip), vehicle: Klucel (hydroxypropylcellulose) (HPC)); 99 % of control and 100 % of control under setting [3]; 101 % of control and 98 % of control under setting [4].
As for `O`, the T/C is, setting by setting: (dose: 0.01 % in 0.5 ml injection vol, schedule: Q01DX009 (ip), vehicle: water) 92 % of control; (dose: 0.02 % in 0.5 ml injection vol, schedule: Q01DX009 (ip), vehicle: water) 100 % of control and 95 % of control; (dose: 0.04 % in 0.5 ml injection vol, schedule: Q01DX009 (ip), vehicle: water) 105 % of control; (dose: 0.08 % in 0.5 ml injection vol, schedule: Q01DX009 (ip), vehicle: water) 100 % of control; (dose: 100.0 mg/kg/injection, schedule: Q01DX009 (ip), vehicle: acetone) 95 % of control; (dose: 200.0 mg/kg/injection, schedule: Q01DX009 (ip), vehicle: acetone) 90 % of control. The T/C (dose: 400.0 mg/kg/injection, schedule: Q01DX009 (ip), vehicle: acetone) is 100 % of control; the T/C (dose: 1:0.5 dilution, schedule: Q01DX005 (ip), vehicle: none) is 112 % of control; the T/C (dose: 1:1.0 dilution, schedule: Q01DX005 (ip), vehicle: none) was 100 % of control; the T/C (dose: 1:2.0 dilution, schedule: Q01DX005 (ip), vehicle: none) is 114 % of control.
On to `CC1(C)NC(=O)N2CCCC(=O)CC21` (stereo unspecified), for which the T/C reads like this: (dose: 100.0 mg/kg/injection, schedule: Q01DX001 (ip), vehicle: saline) 96 % of control; (dose: 200.0 mg/kg/injection, schedule: Q01DX001 (ip), vehicle: saline) 95 % of control; (dose: 400.0 mg/kg/injection, schedule: Q01DX001 (ip), vehicle: saline) 96 % of control.
As to `NC(=O)/C(N=Nc1cc(S(=O)(=O)O)ccc1Cl)=N\Nc1cc(S(=O)(=O)O)ccc1Cl`, the T/C under setting [3] was 100 % of control, the T/C under setting [4] is 91 % of control and the T/C under setting [5] was 94 % of control.
Regarding `C=C1C(=O)OC2(CCCCC)CCCCC12` (stereo unspecified), the T/C is 96 % of control under setting [9], 99 % of control under setting [1] and 96 % of control under setting [10].
With `Cn1c(=O)c2c(ncn2CCNC(c2ccccc2)c2cccc(Cl)c2)n(C)c1=O` (stereo unspecified), the T/C by setting is: (dose: 6.25 mg/kg/injection, schedule: Q01DX005 (ip), vehicle: alkali diluted with saline) 101 % of control; (dose: 12.5 mg/kg/injection, schedule: Q01DX005 (ip), vehicle: alkali diluted with saline) 94 % of control; (dose: 25.0 mg/kg/injection, schedule: Q01DX005 (ip), vehicle: alkali diluted with saline) 97 % of control.
Regarding `Cc1ccc2nccnc2c1`, the T/C under setting [9] was 101 % of control, the T/C under setting [1] was 99 % of control, the T/C under setting [10] was 101 % of control and the T/C under setting [2] was 100 % of control.
As to `CC(NC(=O)OCc1ccccc1)C(=O)NC(CCC(=O)O)C(=O)O` (stereo unspecified), the T/C was 97 % of control (dose: 50.0 mg/kg/injection, schedule: Q01DX005 (ip), vehicle: saline); 101 % of control (dose: 100.0 mg/kg/injection, schedule: Q01DX005 (ip), vehicle: saline); 106 % of control (dose: 200.0 mg/kg/injection, schedule: Q01DX005 (ip), vehicle: saline).
For the compound `O=C(CS)Nc1ccccn1`, the T/C by setting is: (dose: 12.5 mg/kg/injection, schedule: Q01DX009 (ip), vehicle: Klucel (hydroxypropylcellulose) (HPC)) 104 % of control; (dose: 25.0 mg/kg/injection, schedule: Q01DX009 (ip), vehicle: Klucel (hydroxypropylcellulose) (HPC)) 103 % of control; under setting [11], 103 % of control and 114 % of control.
As for `Cc1nc2cc(C(F)(F)F)cc(N)c2n1-c1ccccc1`, the T/C is 113 % of control under setting [12], 106 % of control under setting [13] and 111 % of control under setting [14].
For the compound `CC1C(O)C2(Oc3cc4c(c5c3[C@@H](CC5O)[C@H]2C)CCC2Cc3nc5c(nc3C[C@@]42C)CC2CCC3C4=C[C@H]6O[C@@]7(O[C@@](C)(CO)C[C@@H]7O)C(C)[C@@]6(O)[C@]4(C)[C@@H](O)CC3[C@]2(C)C5)OC1(C)C` (stereo partly specified), the T/C was 107 % of control (dose: 12.5 micrograms/kg/injection, schedule: Q01DX009 (ip), vehicle: saline + alcohol); 100 % of control (dose: 25.0 micrograms/kg/injection, schedule: Q01DX009 (ip), vehicle: saline + alcohol); 107 % of control (dose: 50.0 micrograms/kg/injection, schedule: Q01DX009 (ip), vehicle: saline + alcohol); 109 % of control (dose: 100.0 micrograms/kg/injection, schedule: Q01DX009 (ip), vehicle: saline + alcohol).
As for `CN(C)N1C(=O)C(c2ccccc2)(c2ccccc2)CSC1=S`, the T/C reads like this: under setting [11], 108 % of control; (dose: 100.0 mg/kg/injection, schedule: Q01DX009 (ip), vehicle: Klucel (hydroxypropylcellulose) (HPC)) 100 % of control; (dose: 200.0 mg/kg/injection, schedule: Q01DX009 (ip), vehicle: Klucel (hydroxypropylcellulose) (HPC)) 101 % of control.
In the case of `C1=C(/c2ccccc2)NCCN=C(c2ccccc2)CS/1`, the T/C is 104 % of control under setting [12], 101 % of control under setting [13] and 101 % of control under setting [14].
